# Earlier results in paper PMC8433641, “A Stability-Indicating Ultra Performance Liquid Chromato-Graphic (UPLC) Method for the Determination of a Mycophenolic Acid-Curcumin Conjugate and Its Applications to Chemical Kinetic Studies” (Molecules, 2021).
# Set-up: method as in PMID 29678124
# Details: pH 7.4
substance,measurement,value
curcumin,t1/2,33.6 min
